Reference: US20040224358A1, “Method for discovering one or more peptides adapted for specific binding to a microorganism of interest” (priority 2002, published 2004)

Legend:
[1] = test system: lipopolysaccharides from Salmonella; assay: Dot blot binding of membrane-absorbed peptides to FITC-LPS from Salmonella; settings: 0-20 μg peptide on PVDF membrane, FIG. 1(b)
Procedure: (§1) Varying amounts of each peptide (ranging from 0-20 μg in 5 μg increments) were absorbed at a flow rate of approximately 0.15 ml/min. The membrane was blocked with 3% gelatin in TBS for 30 minutes at room temperature with gentle agitation and then was washed three times with TBS. Isolated, fluorescently-labeled lipopolysaccharides (FITC-LPS) from E.coli and Salmonella (Sigma Chemical Co.) were diluted in TBS to a final concentration of […] and were then bound to the membrane at room temperature with gentle agitation. The membrane was then washed three times with TBS and imaged on a Storm 860 (Molecular Dynamics, Sunnyvale, Calif.) in blue fluorescence mode.

[2] = test system: lipopolysaccharides from E.coli; assay: Dot blot binding of membrane-absorbed peptides to FITC-LPS from E.coli; settings: 0-20 μg peptide on PVDF membrane, FIG. 1(a)
Procedure: as §1

E.coli 0157: H7 cells = assay: Whole-cell binding of E.coli to immobilized Cys-Cecropin P1 (HRP antibody/TMB, absorbance 650 nm); parameters: species or system E coli serotype 0157: H7 (non-pathogenic); settings: immobilized peptide, E.coli 0157: H7 whole cells, FIG. 2
Procedure: The binding of cecropin P1 to whole E.colicells was tested as follows: Preparation of whole bacterial cells—E coli serotype 0157: H7 (non-pathogenic) cells from a frozen stock were grown overnight in Luria Broth Base (Life Technologies, Inc., Paisely, Scotland). The bacterial cells were collected by centrifugation at 9000×g for 5 min. The cell pellet was washed 2 times with PBS pH 7.2 and collected each time by centrifugation. The washed cell pellet was resuspended in PBS pH 7.2 to a final volume equivalent to the original culture volume. Optical density of the cell suspension was detected on a Beckmann DU840 spectrophotometer at an absorbance of 540 nm. An absorbance of 4.5 is approximately 3.5×10^9 cfu/ml.
Peptide immobilization—Cys-Cecropin P1 (a modified cecropin p1 prepared by solid phase peptide synthesis wherein cysteine is added to the C-terminus of cecropin p1) was diluted into PBS pH 6.5, 1 mM EDTA, 0.0001 mM DTT (Sigma Chemical Co., St. Louis, Mo.) for immobilization onto sulfhydryl-bind strip wells (Corning Inc., Corning, N.Y.). […]
Detection and color development—E.coli 0157: H7 cells (prepared as above) were added to each well containing immobilized cys-cecropin p1 (described as above). […] Absorbance was then measured on a Thermomax microplate reader (Molecular Devices, Sunnyvale, Calif.) at 650 nm.

Substance | binding to lipopolysaccharides from Salmonella [1] | binding to lipopolysaccharides from E. coli [2] | saturation of whole-cell binding occurs at a concentration of (E.coli 0157: H7 cells)
Buforin I | did not bind | did not bind | 
Cecropin P1 (SWLSKTAKKLENSAKKRISEGIAIAIQGGPR; Cecropin-P1; UniProt P14661 14-44, looked up) | did bind | did bind | 45 to 50 µg
Indolicidin | did bind | did bind | 
PGQ | did bind | did bind | 
